How the values were obtained:
U-87MG = experiment: MTT test, U-87MG; type: cell-based; details: Homo sapiens, 10^−5 M, 72 hours, control = 100%, mean ± SEM, read-out: average optical density (MTT), percentage relative to control
Procedure: (§1) The influence of the compounds of formulae (I) and (Ia) on non-clonogenic cells was evaluated with the aid of the MTT calorimetric test.
(§2) The principle of the MTT test is based on the mitochondrial reduction, by the metabolically active live cells, of the yellow-colored product MTT (3-(4,5-dimethylthiazol-2-yl)-2,5-diphenyltetrazolium bromide) to a blue-colored product, formazan. The amount of formazan thus obtained is directly proportional to the amount of live cells present in the culture well(s). This amount of formazan is measured by spectrophotometry.
(§3) The cell lines are maintained as a monolayer culture at 37° C. in stoppered culture dishes containing MEM 25 MM HEPES (Minimum Essential Medium) base medium. This medium is suited to the growth of a range of various mammalian diploid or primary cells. This medium is then supplemented with:
(§4) an amount of 5% of FCS (Foetal Calf Serum) decomplemented at 56° C. for 1 hour,
(§5) 0.6 mg/ml of L-glutamine,
(§6) 200 μg/ml of streptomycin,
(§7) The 12 human cancer cell lines which were used were obtained from the American Type Culture Collection (ATCC, Rockville, Md., USA). These 12 cell lines are:
(§8) U-373MG (code ATCC: HTB-17) and U-87MG (code ATCC: HTB-14) which are two glioblastomas,
(§9) Experimentally: 100 μl of a cell suspension containing 20 000 to 50 000 (depending on the cell type used) cells/ml of culture medium are inoculated in 96-well flat-bottomed multi-well plates and are incubated at 37° C., under an atmosphere comprising 5% CO2 and 70% humidity. After incubation for 24 hours, the culture medium is replaced with 100 μl of fresh medium containing either the various test compounds at concentrations ranging from 10^−5 to 10^−10 M or the solvent used to dissolve the test products (control condition). After incubation for 72 hours under the above conditions, the culture medium is replaced with 100 μl of a yellowish solution of MTT dissolved at a rate of 1 mg/ml in RPMI 1640. The microplates are reincubated for 3 hours at 37° C. and are then centrifuged for 10 minutes at 400×g. The yellowish solution of MTT is removed and the blue formazan crystals formed in the cell are dissolved in 100 μl of DMSO. The microplates are then shaken for 5 minutes. The intensity of the resulting blue coloration, and thus of the conversion of the yellow product MTT into blue formazan by the cells that are still alive at the end of the experiment, is quantified by spectrophotometry using a Dynatech Immunoassay System machine at wavelengths of 570 nm and 630 nm corresponding, respectively, to the maximum absorption wavelengths of formazan and to the background noise. Software incorporated in the spectrophotometer calculates the average optical density values and the standard deviation (SD) and standard error of mean (SEM) values.
(§10) By way of example, the results of the average optical density, expressed as a percentage relative to the average optical density measured under the control condition (set equal to 100%), obtained at a concentration of 10^−5 M on the 12 abovementioned tumor cell lines are given in Table II.

U-373MG = experiment: MTT test, U-373MG; type: cell-based; details: Homo sapiens, U373 MG, 10^−5 M, 72 hours, control = 100%, mean ± SEM, read-out: average optical density (MTT), percentage relative to control
Procedure: as §1, §2, §3, §4, §5, §6, §7, §8, §9, §10

SW1088 = experiment: MTT test, SW1088; type: cell-based; details: Homo sapiens, 10^−5 M, 72 hours, control = 100%, mean ± SEM, read-out: average optical density (MTT), percentage relative to control
Procedure: as §1, §2, §3, §4, §5, §6, §7
SW1088 (code ATCC: HTB-12) which is an astrocytoma,
as §9, §10

T24 = experiment: MTT test, T24; type: cell-based; details: Homo sapiens, T-24, 10^−5 M, 72 hours, control = 100%, mean ± SEM, read-out: average optical density (MTT), percentage relative to control
Procedure: as §1, §2, §3, §4, §5, §6, §7
(§11) J82 (code ATCC: HTB-1) and T24 (code ATCC: HTB-4) which are two bladder cancers,
as §9, §10

J82 = experiment: MTT test, J82; type: cell-based; details: Homo sapiens, 10^−5 M, 72 hours, control = 100%, mean ± SEM, read-out: average optical density (MTT), percentage relative to control
Procedure: as §1, §2, §3, §4, §5, §6, §7, §11, §9, §10

HCT-15 = experiment: MTT test, HCT-15; type: cell-based; details: Homo sapiens, 10^−5 M, 72 hours, control = 100%, mean ± SEM, read-out: average optical density (MTT), percentage relative to control
Procedure: as §1, §2, §3, §4, §5, §6, §7
(§12) HTC-15 (code ATCC: CCL-225) and LoVo (code ATCC: CCL-229) which are two colorectal cancers,
as §9, §10

LoVo = experiment: MTT test, LoVo; type: cell-based; details: Homo sapiens, 10^−5 M, 72 hours, control = 100%, mean ± SEM, read-out: average optical density (MTT), percentage relative to control
Procedure: as §1, §2, §3, §4, §5, §6, §7, §12, §9, §10

MCF7 = experiment: MTT test, MCF7; type: cell-based; details: Homo sapiens, 10^−5 M, 72 hours, control = 100%, mean ± SEM, read-out: average optical density (MTT), percentage relative to control
Procedure: as §1, §2, §3, §4, §5, §6, §7
(§13) T-47D (code ATCC: HTB-133) and MCF7 (code ATCC: HTB-22) which are two breast cancers,
as §9, §10

T-47D = experiment: MTT test, T-47D; type: cell-based; details: Homo sapiens, T47D, 10^−5 M, 72 hours, control = 100%, mean ± SEM, read-out: average optical density (MTT), percentage relative to control
Procedure: as §1, §2, §3, §4, §5, §6, §7, §13, §9, §10

A549 = experiment: MTT test, A549; type: cell-based; details: Homo sapiens, 10^−5 M, 72 hours, control = 100%, mean ± SEM, read-out: average optical density (MTT), percentage relative to control
Procedure: as §1, §2, §3, §4, §5, §6, §7
(§14) A549 (code ATCC: CCL-185) and A-427 (code ATCC: HTB-53) which are two non-small-cell lung cancers,
as §9, §10

A-427 = experiment: MTT test, A-427; type: cell-based; details: Homo sapiens, 10^−5 M, 72 hours, control = 100%, mean ± SEM, read-out: average optical density (MTT), percentage relative to control
Procedure: as §1, §2, §3, §4, §5, §6, §7, §14, §9, §10

PC-3 = experiment: MTT test, PC-3; type: cell-based; details: Homo sapiens, 10^−5 M, 72 hours, control = 100%, mean ± SEM, read-out: average optical density (MTT), percentage relative to control
Procedure: as §1, §2, §3, §4, §5, §6, §7
PC-3 (code ATCC: CRL-1435) which is a prostate cancer.
as §9, §10

[1] = Determination of the maximum tolerated dose (MTD); details: mouse, in vivo, ip; B6D2F1/Jico mice; single intraperitoneal administration, 2.5 to 160 mg/kg; survival over 14 days
Procedure: 3.—Determination of the Maximum Tolerated Dose (MTD):
The evaluation of the maximum tolerated dose was carried out on 4- to 6-week-old B6D2F1/Jico mice. The compounds were administered intraperitoneally at increasing doses graduating from 2.5 to 160 mg/kg. The value of the MTD (expressed in mg/kg) is determined from the observation of the survival rate of the animals over a 14-day period after a single administration of the product under consideration. The weight change of the animals is also monitored during this period. When the value of the MTD is greater than 160 mg/kg, the MTD value is likened to 160 mg/kg by default.
The results of the estimation of the maximum tolerated dose (MTD) are collated in the following table: […]

`COc1ccc(-c2cc3c(OC)cc(OC)cc3n(C)c2=O)cc1` [CRL8244, 5,7-Dimethoxy-3-(4-methoxyphenyl)-1-methyl-1,2-dihydro-2-quinolinone] showed a viability at 10 µM (U-87MG) of 97 ± 1%, a viability at 10 µM (U-373MG) of 69 ± 0.9% and a viability at 10 µM (SW1088) of 81.3 ± 1.1%. The viability at 10 µM (T24) was 88.7 ± 2.9%, the viability at 10 µM (J82) was 88.5 ± 2.1% and the viability at 10 µM (HCT-15) was 76.8 ± 3%. The viability at 10 µM (LoVo) was 78.2 ± 1.8%, the viability at 10 µM (MCF7) was 75.9 ± 3.8% and the viability at 10 µM (T-47D) was 105 ± 3%. The viability at 10 µM (A549) was 98 ± 0.9%, the viability at 10 µM (A-427) was 93.6 ± 2.3% and the viability at 10 µM (PC-3) was 83.2 ± 3.6%. For the same compound, the MTD at 14 day [1] was > 160 mg/kg.

`COc1ccc(-c2cc3c(OC)cc(OC)cc3n(C)c2=S)cc1` [CRL8245, 5,7-Dimethoxy-3-(4-methoxyphenyl)-1-methyl-1,2-dihydro-2-quinolinethione] gave a viability at 10 µM (U-87MG) of 58.6 ± 1.7%, a viability at 10 µM (U-373MG) of 63.7 ± 2.7% and a viability at 10 µM (SW1088) of 75.1 ± 2%. The viability at 10 µM (T24) was 51.1 ± 1.9%, the viability at 10 µM (J82) was 31.1 ± 0.6% and the viability at 10 µM (HCT-15) was 35.8 ± 1.2%. The viability at 10 µM (LoVo) was 65.5 ± 1.1%, the viability at 10 µM (MCF7) was 46.9 ± 1% and the viability at 10 µM (T-47D) was 59.6 ± 2.9%. The viability at 10 µM (A549) was 74.1 ± 2.1%, the viability at 10 µM (A-427) was 69 ± 1.9% and the viability at 10 µM (PC-3) was 74.4 ± 1.9%. The MTD at 14 day [1] was > 160 mg/kg.

Work on `COc1ccc(-c2cc3c(OC)cc(OC)cc3n(CCCN(C)C)c2=O)cc1` [CRL8254, 1-[3-(Dimethylamino)propyl]-5,7-dimethoxy-3-(4-methoxyphenyl)-1,2-dihydro-2-quinolinone] yielded a viability at 10 µM (U-87MG) of 105 ± 3.6%, a viability at 10 µM (U-373MG) of 7.6 ± 1.3% and a viability at 10 µM (SW1088) of 128 ± 2.2%. It also gave a viability at 10 µM (T24) of 103 ± 2.9%, a viability at 10 µM (J82) of 87.8 ± 1% and a viability at 10 µM (HCT-15) of 94.4 ± 3.5%. The viability at 10 µM (LoVo) was 91.8 ± 2.7%, the viability at 10 µM (MCF7) was 81.9 ± 0.6% and the viability at 10 µM (T-47D) was 55.2 ± 4.1%. It also gave a viability at 10 µM (A549) of 96.9 ± 1.5%, a viability at 10 µM (A-427) of 20.2 ± 2.3% and a viability at 10 µM (PC-3) of 97.9 ± 1.2%. For the same compound, the MTD at 14 day [1] was > 160 mg/kg.

With `COc1ccc(-c2cc3c(OC)cc(OC)cc3n(CC#N)c2=O)cc1` [CRL8255, [5,7-Dimethoxy-3-(4-methoxyphenyl)-2-oxo-1,2-dihydro-1-quinolinyl]acetonitrile] the viability at 10 µM (U-87MG) was 72.5 ± 1.1%, the viability at 10 µM (U-373MG) was 68.5 ± 2.7% and the viability at 10 µM (SW1088) was 67.5 ± 1.5%. It also gave a viability at 10 µM (T24) of 79.5 ± 2.2%, a viability at 10 µM (J82) of 36.2 ± 0.5% and a viability at 10 µM (HCT-15) of 58.7 ± 3%. The viability at 10 µM (LoVo) was 56.9 ± 1.1%, the viability at 10 µM (MCF7) was 71.5 ± 1.4% and the viability at 10 µM (T-47D) was 73.7 ± 3.3%. It also gave a viability at 10 µM (A549) of 79.1 ± 2.1%, a viability at 10 µM (A-427) of 76.3 ± 1.5% and a viability at 10 µM (PC-3) of 77.7 ± 1.2%. The MTD at 14 day [1] was > 160 mg/kg.

In the case of `COc1ccc(-c2cc3c(OC)cc(OC)cc3n(C)/c2=N\Nc2ccccn2)cc1` [CRL8266, 5,7-Dimethoxy-3-(4-methoxyphenyl)-1-methyl-1,2-dihydro-2-quinolinone-2-(2-pyridyl)hydrazone], the viability at 10 µM (U-87MG) is reported as 64.4 ± 1.2%, the viability at 10 µM (U-373MG) is reported as 66.3 ± 1.6% and the viability at 10 µM (SW1088) is reported as 68.4 ± 1.6%. It also gave a viability at 10 µM (T24) of 84.6 ± 3%, a viability at 10 µM (J82) of 31.2 ± 0.7% and a viability at 10 µM (HCT-15) of 76.1 ± 1.5%. For the same compound, the viability at 10 µM (LoVo) was 71.3 ± 4.5%, the viability at 10 µM (MCF7) was 46.3 ± 2.6% and the viability at 10 µM (T-47D) was 25 ± 4%. The viability at 10 µM (A549) was 61.6 ± 3.5%, the viability at 10 µM (A-427) was 45.2 ± 2.2% and the viability at 10 µM (PC-3) was 67.2 ± 0.9%. For the same compound, the MTD at 14 day [1] was > 160 mg/kg.
